From patent US9371539B2, “DNA encoding ring zinc-finger protein and the use of the DNA in vectors and bacteria and in plants” (Board of Trustees of Michigan State University, priority 2006, dated 2016)

T1: AtTLP9 (Arabidopsis thaliana, UniProt Q9SQU1)
T1 construct: expressed in transfected cells; host or cells: yeast strain AH109
T1 sequence (Q9SQU1 1-380): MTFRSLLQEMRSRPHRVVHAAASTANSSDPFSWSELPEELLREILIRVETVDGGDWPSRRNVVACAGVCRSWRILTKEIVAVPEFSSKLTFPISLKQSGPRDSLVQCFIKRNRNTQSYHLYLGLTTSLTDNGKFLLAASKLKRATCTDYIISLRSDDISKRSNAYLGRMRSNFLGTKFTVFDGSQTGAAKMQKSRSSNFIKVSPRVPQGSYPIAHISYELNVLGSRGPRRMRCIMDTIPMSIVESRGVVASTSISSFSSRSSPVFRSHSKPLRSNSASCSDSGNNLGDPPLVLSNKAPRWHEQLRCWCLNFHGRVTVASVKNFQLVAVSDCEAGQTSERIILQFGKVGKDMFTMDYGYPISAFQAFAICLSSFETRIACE

B1: XERICO: protein encoded by Arabidopsis thaliana gene AT2G04240; 162 amino acids, RING-H2 zinc-finger motif (protein)
chain: MGLSSLPGPSEGMLCVILVNTALSISIVKGIVRSFLGIVGISLSPSSSSPSSVTVSSENSSTSESFDFRVCQPESYLEEFRNRTPTLRFESLCRCKKQADNECSVCLSKFQGDSEINKLKCGHLFHKTCLEKWIDYWNITCPLCRTPLVVVPEDHQLSSNVW

Legend:
[1] = tested on: XERICO; test: Expression of XERICO upon ABA treatment; assay type: in vivo, Arabidopsis thaliana; details: ABA 10 μM; up to 3-hours post-treatment
Procedure: Total RNA was extracted using the Trizol reagent method (Gibco-BRL, Gaithersburg, Md.). For northern blot analysis, 10 μg of total RNA from each sample was denatured and separated using a 1% agarose-formaldehyde gel. RNA was transferred onto a Hybond-N+ membrane (Stratagene, La Jolla, Calif.) by capillary action. Gene-specific probes were prepared by PCR and labeled with [^32P]-dCTP using a Prime-it II Random Primer Labeling kit (Stratagene, La Jolla, Calif.). Primers used in this analysis were following: XERICO (forward; SEQ ID NO:439, 5′-[…]-3 and reverse; SEQ ID NO:440, 5′-[…]-3′), AtNCED3 (forward, SEQ ID NO:441, 5′-[…]-3′ and reverse; SEQ ID NO:442, 5′-[…]-3′), AtCYP707A2 (forward; SEQ ID NO:443, 5′-[…]-3′ and reverse; SEQ ID NO:444, 5′-[…]-3′), RD29a (forward; SEQ ID NO:445, 5′-[…]-3′ and reverse; SEQ ID NO:446, 5′-[…]-3′), and Actin 8 (forward; SEQ ID NO:447, 5′-[…]-3′ and reverse; SEQ ID […], 5′-[…]-3′). Hybridization was carried out using ULTRAhyb® according to the manufacturer's instructions (Ambion, Austin, Tex.), and a Kodak Biomax film (Sigma) was exposed to the blot. An Actin 8 gene (SEQ ID NO:457) or ethidium bromide-stained ribosomal RNA was used as a loading control.

[2] = tested on: Arabidopsis thaliana; test: Effect of ABA on early seedling growth and cotyledon opening; assay type: in vivo
Procedure: (§1) Arabidopsis thaliana, ecotype Columbia (Col), was used as the wild-type plant for phenotypic assays for comparison to transgenic 35S::XERICO Arabidopsis thaliana, plants in these experiments. Unless noted otherwise, plants were grown under sterile conditions on MS nutrient agar media (1×MS basal medium (Sigma, stock number M5519) with 2% sucrose and 0.3% phytagel (Sigma) containing 2% sucrose or on soil in a growth chamber (16 h light/8 h dark) at 23° C., after stratification. For monitoring of hypocotyl elongation and root growth with response salt/osmotic stress, a minimum of 20 seeds were sowed on MS nutrient agar media containing specified treatments, following which the plates were held in the vertical position for 7 days. For testing the effects of ABA on germination and early seedling growth, seeds were grown horizontally. For abiotic stress treatments, wild-type seedlings were grown on MS nutrient agar media containing 2% sucrose for 10-days and then treated the stresses indicated in FIG. 1, for up to 24 hour without a treatment control. Samples were collected at the indicated time and frozen immediately in liquid N2 and were stored at −80° C. until use. Experiments were performed in triplicates and repeated at least three times.
(§2) Since the hypersensitivity to salt or osmotic stress was the most prominent phenotype of the three independent T3 homozygous lines of 35S::XERICO plants, the functional relationship of the gene with ABA, a plant stress hormone involved in salt and drought stress adaptation, was investigated. […] Although 35S::XERICO plants germinated slightly later than wild-type even in the absence of exogenous ABA (FIG. 3c), germination was further delayed following ABA treatment. At 0.1 μM of ABA, 13% of 35S::XERICO plants were germinated 1.5 day after sowing, while 43% of wild-type seeds germinated. […] Germination was scored by the emergence of a radicle (>1 mm). The number of ‘cotyledon opening’ of seedlings at five days after sowing were counted and recorded. […]

[3] = tested on: Arabidopsis thaliana; test: Effect of ABA on seed germination (radicle emergence >1 mm); assay type: in vivo
Procedure: as §1, §2

[4] = tested on: AtNCED3; test: RNA gel blot analysis of response to ABA treatment; assay type: in vivo, Arabidopsis thaliana; details: 10 μM ABA up to 24 hour; both wild-type and 35S::XERICO plants
Procedure: (a) RNA gel blot analysis showing a response to ABA. Wild-type (WT) and 35S::XERICO plants were grown on MS nutrient agar media for 10 days and then treated with 10 μM of ABA for up to 24 hour. Total RNA was isolated at the indicated times after treatment. Each lane was loaded with 10 μg total RNA. The RNA blot was hybridized with [^32P]-labeled gene specific probes for AtNCED3 (SEQ ID NO:452), AtCYP707A2 (SEQ ID NO:428) and RD29a (SEQ ID NO:386). Probing with Actin 8 (SEQ ID NO:455) was used as a RNA loading control. (b) RNA gel blot analysis in response to drought treatment. Wild-type (WT) and 35S::XERICO plants were grown on MS medium for 14 days and then dehydrated (see, EXAMPLE I).
Total RNA was extracted using the Trizol reagent method (Gibco-BRL, Gaithersburg, Md.). For northern blot analysis, 10 μg of total RNA from each sample was denatured and separated using a 1% agarose-formaldehyde gel. RNA was transferred onto a Hybond-N+ membrane (Stratagene, La Jolla, Calif.) by capillary action. Gene-specific probes were prepared by PCR and labeled with [^32P]-dCTP using a Prime-it II Random Primer Labeling kit (Stratagene, La Jolla, Calif.). […]

[5] = target: T1, AtTLP9; test: Yeast two-hybrid screening; assay type: binding; details: yeast AH109; truncated XERICO without transmembrane domain as bait
Procedure: (§3) Two-hybrid screening was performed using the BD Matchmaker™ library construction and screening kit (Clonetech, Palo Alto, Calif.); pGADT7 was used as the base for a GAL4 activation domain (AD) vector and pGBKT7 was used for a GAL4 DNA-binding domain (DNA-BD) vector (pGADT7 and pGBKT7 were obtained from “BD Matchmaker Library Construction & Screening Kits” (Clontech, Palo Alto, Calif.)). The yeast strain AH109 (leu^−, trp^−, Ade^−, his^−) (obtained from “BD Matchmaker Library Construction & Screening Kits (Clontech, Palo Alto, Calif.)) with chromosomally integrated reporter genes lacZ and HIS under the control of the GAL1 promoter activated by the GAL4 transcription factor was used to host all constructs. Truncated XERICO cDNA without a transmembrane domain (SEQ ID NO: 451) was amplified by PCR using primers 5′-[…]-3′ (forward; SEQ ID NO:449) and 5′-[…]-3′ (reverse; SEQ ID NO:450) designed to contain EcoRI and PstI site, respectively. The amplified PCR product was digested with EcoRI and PstI, and subcloned into pGBKT7 as a fusion to the DNA binding domain of GAL4 and verified by sequencing. The pGBKT7/XERICO vector was used as a bait to screen an Arabidopsis thaliana cDNA library in pGADT7 as a fusion to the activation domain of GAL4. […]

[6] = target: T2, AtUBC8 (Arabidopsis thaliana, UniProt P35131); test: Yeast two-hybrid screening; assay type: binding; details: yeast AH109; truncated XERICO without transmembrane domain as bait
T2 construct: expressed in transfected cells; host or cells: yeast strain AH109
Procedure: as §3

T2 sequence (P35131 whole entry, the tested form may be a part): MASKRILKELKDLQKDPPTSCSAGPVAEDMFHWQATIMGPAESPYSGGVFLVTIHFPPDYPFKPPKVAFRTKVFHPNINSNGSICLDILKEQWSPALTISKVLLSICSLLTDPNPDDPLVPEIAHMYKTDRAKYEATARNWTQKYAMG

Molecule	expression of XERICO [1]	early seedling growth ([2]; 0.1 μM exogenous ABA, three independent lines of 35S::XERICO plants, compared to wild-type)	cotyledon opening ([2]; 1 μM ABA, five days after sowing, 35S::XERICO plants)	plants with opened cotyledons ([2]; 1 μM ABA, five days after sowing, wild-type plants)	plants germinated ([3]; 0.1 μM ABA, 1.5 day after sowing, 35S::XERICO plants)	seeds germinated ([3]; 0.1 μM ABA, 1.5 day after sowing, wild-type seeds)	plants failed to germinate ([3]; 1.0 μM ABA, prolonged incubation, 35S::XERICO plants)	transcripts of AtNCED3 [4]	interaction with AtTLP9 [5]	interaction with AtUBC8 [6]
CC1=CC(=O)CC(C)(C)[C@@]1(O)/C=C/C(C)=C\C(=O)O [ABA, abscisic acid]	no significant changes	arrested immediately after germination	did not develop a cotyledon	approximately 80%	13%	43%	more than 20%	clearly increased		
B1									interacts	interacts
